We go through 40 compounds from ChEMBL document CHEMBL1137187, “Isoindolinone ureas: a novel class of KDR kinase inhibitors” (Bioorg Med Chem Lett, 2004).

The target of assay [1] is Vascular endothelial growth factor receptor 2 (Homo sapiens, UniProt P35968). In words: Inhibition of Vascular endothelial growth factor receptor 2 (KDR).
The next assay has as its system NIH3T3. In words: inhibitory activity of the Compound against NIH3T3 Cell lines. In kind it is functional, cell-based. As to conditions: Mus musculus.

Structures are written as SMILES. A value given as a limit tells only on which side of the number the result lay.

Sequence of Vascular endothelial growth factor receptor 2 (P35968 whole entry): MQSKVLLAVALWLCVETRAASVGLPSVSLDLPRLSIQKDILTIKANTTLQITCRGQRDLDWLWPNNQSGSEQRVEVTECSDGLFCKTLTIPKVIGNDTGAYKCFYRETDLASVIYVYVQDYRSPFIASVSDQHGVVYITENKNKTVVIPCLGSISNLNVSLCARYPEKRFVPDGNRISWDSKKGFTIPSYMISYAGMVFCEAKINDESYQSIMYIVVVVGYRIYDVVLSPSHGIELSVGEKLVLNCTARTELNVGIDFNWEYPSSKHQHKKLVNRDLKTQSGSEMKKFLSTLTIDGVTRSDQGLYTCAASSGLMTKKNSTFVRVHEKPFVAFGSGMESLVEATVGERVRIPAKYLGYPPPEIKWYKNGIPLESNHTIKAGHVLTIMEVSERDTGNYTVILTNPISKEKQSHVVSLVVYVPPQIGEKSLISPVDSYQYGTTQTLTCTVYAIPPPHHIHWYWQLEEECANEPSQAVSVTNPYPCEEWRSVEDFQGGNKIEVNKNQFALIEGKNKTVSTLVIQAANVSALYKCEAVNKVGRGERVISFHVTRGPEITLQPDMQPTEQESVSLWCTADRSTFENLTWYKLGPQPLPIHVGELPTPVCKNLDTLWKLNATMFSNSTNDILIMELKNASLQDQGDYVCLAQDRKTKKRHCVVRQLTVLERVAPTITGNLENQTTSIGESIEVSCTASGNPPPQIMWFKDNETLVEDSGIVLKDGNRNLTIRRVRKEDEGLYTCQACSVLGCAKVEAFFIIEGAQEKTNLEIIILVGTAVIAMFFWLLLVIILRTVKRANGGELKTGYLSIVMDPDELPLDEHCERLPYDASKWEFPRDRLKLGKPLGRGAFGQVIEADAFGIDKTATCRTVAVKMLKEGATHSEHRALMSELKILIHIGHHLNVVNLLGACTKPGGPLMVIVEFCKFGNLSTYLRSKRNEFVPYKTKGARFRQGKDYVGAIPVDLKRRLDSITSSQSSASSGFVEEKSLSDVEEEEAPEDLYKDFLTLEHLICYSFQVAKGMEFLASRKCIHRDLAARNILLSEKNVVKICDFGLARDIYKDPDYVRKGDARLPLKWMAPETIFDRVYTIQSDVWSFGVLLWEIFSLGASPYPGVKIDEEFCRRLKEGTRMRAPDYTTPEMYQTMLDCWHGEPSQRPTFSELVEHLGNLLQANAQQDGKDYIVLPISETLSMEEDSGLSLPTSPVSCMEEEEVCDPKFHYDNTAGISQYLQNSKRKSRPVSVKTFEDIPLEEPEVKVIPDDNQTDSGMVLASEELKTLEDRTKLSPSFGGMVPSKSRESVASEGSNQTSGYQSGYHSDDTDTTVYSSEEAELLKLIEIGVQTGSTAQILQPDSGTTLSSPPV

As usually defined, the IC50 is the concentration needed to halve the response being measured. Low values mean greater potency, high ones weaker potency. `Cc1ccc(NC(=O)Nc2ccc(-c3cccc4c3CNC4=O)cc2)cc1` showed an IC50 in assay [1] of 430 nM.

Compound `COCCOc1ccc(-c2ccc(NC(=O)Nc3cccc(C)c3)cc2)c2c1C(=O)NC2` showed a half-maximal inhibitory concentration (IC50) in assay [1] of 126 nM.

As to `Cc1cccc(NC(=S)Nc2ccc(-c3cccc4c3CNC4=O)cc2)c1`, in assay [1], the IC50 was found to be 10000 nM.

For the compound `Cc1cccc(NC(=O)Nc2ccc(-c3ccc(NC(=O)c4ccccc4)c4c3CNC4=O)cc2)c1`, the midpoint of inhibition in assay [1], the IC50, lay at 470 nM.

Regarding `COc1ccc(-c2ccc(NC(=O)Nc3cccc(C)c3)cc2)c2c1C(=O)NC2`, the IC50 with NIH3T3 came out at 170 nM; in assay [1] it was 21 nM.

Consider `Cc1cccc(NC(=O)Nc2ccc(-c3cccc4c3CNC4=O)cc2Cl)c1`, for which the values for the IC50 (in the assay with NIH3T3; in assay [1]) were 99 nM and 30 nM, respectively.

For the compound `Cc1cccc(NC(=O)Nc2ccc(-c3ccc(NC(=O)CN(C)C)c4c3CNC4=O)cc2)c1`, the IC50 in assay [1] was determined as 350 nM.

With `COc1cc(-c2nn([C@H]3CC[C@H](N4CCN(C)CC4)CC3)c3ncnc(N)c23)ccc1NC(=O)c1ccccc1`, the IC50 in assay [1] was > 50 nM.

As for `O=C(Nc1ccc(-c2cccc3c2CNC3=O)cc1)Nc1cc(C(F)(F)F)ccc1F`, the IC50 with NIH3T3 was 150 nM; in assay [1], 23 nM.

On to `Cc1cccc(NC(=O)Nc2ccc(-c3cccc4c3CNC4=O)c(C)c2)c1`, for which, in assay [1], the half-inhibitory concentration (IC50) was found to be 770 nM.

As for `Cc1cccc(CC(=O)Nc2ccc(-c3cccc4c3CNC4=O)cc2)c1`, in assay [1], the IC50 is > 50000 nM.

`CC(=O)Nc1ccc(-c2ccc(NC(=O)Nc3cccc(C)c3)cc2)c2c1C(=O)NC2` displayed an IC50 in assay [1] of 64 nM.

In turn, `N#Cc1cccc(NC(=O)Nc2ccc(-c3cccc4c3CNC4=O)cc2)c1` showed an IC50 in assay [1] of 370 nM.

For `Cc1cccc(NC(=O)Cc2ccc(-c3cccc4c3CNC4=O)cc2)c1`, half-maximal inhibition in assay [1] (IC50) required 2100 nM. This IC50 is about 5.7-fold higher than that of the compound before.

For the compound `Cc1cccc(NC(=O)Nc2c(C)cc(-c3cccc4c3CNC4=O)cc2C)c1`, the IC50 in assay [1] is > 50000 nM.

The compound `COc1cccc(NC(=O)Nc2ccc(-c3cccc4c3CNC4=O)cc2)c1` came in with an IC50 in assay [1] of 570 nM.

For `Cc1cccc(N(C)C(=O)Nc2ccc(-c3cccc4c3CNC4=O)cc2)c1`, in assay [1], the IC50 was 19000 nM.

In assay [1], `O=C(Nc1ccc(-c2cccc3c2CNC3=O)cc1)Nc1ccc(C(F)(F)F)cc1` came in with an IC50 of 161 nM.

In turn, `Cc1cccc(NC(=O)Nc2ccc(-c3ccc(N)c4c3CNC4=O)cc2)c1` came in with an IC50 in assay [1] of 14 nM.

Take `O=C1NCc2c1cccc2-c1ccc(NS(=O)(=O)c2ccccc2)cc1`: in assay [1], the half-maximal inhibitory concentration (IC50) is > 50000 nM.

In turn, `CCc1cc(-c2cccc3c2CNC3=O)ccc1NC(=O)Nc1cccc(C)c1` showed an IC50 in assay [1] of 6000 nM.

Compound `O=C(Nc1ccc(-c2cccc3c2CNC3=O)cc1)Nc1cccc(F)c1` displayed an IC50 in assay [1] of 520 nM.

As for `Cc1cccc(NC(=O)Nc2ccc(-c3cccc4c3CNC4=O)cc2F)c1`, in assay [1], inhibition was half-maximal at 44 nM (IC50).

Compound `O=C(Nc1ccc(-c2cccc3c2CNC3=O)cc1)Nc1ccc2c(c1)CCC2` came in with an IC50 in assay [1] of 39 nM.

`Cc1cc(C)cc(NC(=O)Nc2ccc(-c3cccc4c3CNC4=O)cc2)c1` displayed an IC50 in assay [1] of 83 nM.

In assay [1], `CCc1cccc(NC(=O)Nc2ccc(-c3cccc4c3CNC4=O)cc2)c1` returned an IC50 of 29 nM.

The compound `Cc1ccccc1NC(=O)Nc1ccc(-c2cccc3c2CNC3=O)cc1` came in with an IC50 in assay [1] of 4400 nM.

In turn, `Cc1cccc(NC(=O)Nc2ccc(-c3cccc4c3CNC4=O)c(F)c2)c1` registered an IC50 in assay [1] of 52 nM.

`Cc1cccc(NC(=O)Nc2ccc(-c3cccc4c3CNC4=O)cc2C(F)(F)F)c1`: the IC50 in assay [1] was found to be 34 nM.

In turn, `CC(C)OCc1ccc2c(c1)c1c3c(c4c(c1n2CCCCC(=O)N(C)C)Cc1ccccc1-4)C(=O)NC3` returned an IC50 in assay [1] of 18 nM.

As for `Cc1cccc(NC(=O)Nc2ccc(-c3ccc(NC(=O)c4cccnc4)c4c3CNC4=O)cc2)c1`, the IC50 was 11 nM with NIH3T3 and 10 nM in assay [1].

In the assay with NIH3T3, `Cc1cccc(NC(=O)Nc2ccc(-c3cccc4c3CNC4=O)cc2)c1` showed an IC50 of 270 nM.

In the assay on NIH3T3, `Cc1cccc(NC(=O)Nc2ccc(-c3cccc4c3CNC4=O)cc2C)c1` came in with an IC50 of 68 nM. Against the preceding compound, the IC50 is about 4-fold lower.

`Cc1cccc(NC(=O)Nc2ccc(-c3cccc4c3CNC4=O)c(Cl)c2)c1` displayed an IC50 in assay [1] of 71 nM.

As to `O=C(Nc1ccccc1)Nc1ccc(-c2cccc3c2CNC3=O)cc1`, it took 1800 nM to reach half-maximal inhibition in assay [1] (IC50).

Take `O=C(Nc1ccc(-c2cccc3c2CNC3=O)cc1)c1ccccc1`: the IC50 in assay [1] is > 50000 nM.

For the compound `Cc1cccc(NC(=O)Nc2ccc(-c3cccc4c3CNC4=O)c(C(F)(F)F)c2)c1`, the midpoint of inhibition in assay [1], the IC50, lay at 9000 nM.

With `O=C(Nc1ccc(-c2cccc3c2CNC3=O)cc1)Nc1cccc(Cl)c1`, half-maximal inhibition in assay [1] (IC50) was put at 46 nM. Against the preceding compound, the IC50 is about 200-fold lower.

Consider `O=C(Nc1ccc(-c2cccc3c2CNC3=O)cc1)Nc1cccc(C(F)(F)F)c1`, for which the IC50 in the assay on NIH3T3 is 65 nM; in assay [1], 7 nM.

For the compound `Cc1cccc(NC(=O)N(C)c2ccc(-c3cccc4c3CNC4=O)cc2)c1`, in assay [1], inhibition was half-maximal at 1100 nM (IC50). This lies in the single-digit micromolar range.
